Converted amounts (≈) assume the structure as drawn. Non-standard residues stand in square brackets, D forms with d. Residues, ends and D or L forms follow the SMILES beside them. d1Nal = N[C@H](Cc1cccc2ccccc12)C(=O)O; dNle = CCCC[C@@H](N)C(=O)O
What was measured:
[1] = test system: Methicillin sensitive Staphylococcus pseudintermedius (26916); type: cell-based; settings: 18 h
[2] = test system: Methicillin resistant Staphylococcus pseudintermedius, (C22963); type: cell-based; settings: 18 h
[3] = test system: Acinetobacter baumannii, 27065; type: cell-based; settings: 27065, 18 h
[4] = test system: Corynebacterium auriscanis, 31551; type: cell-based; settings: 18 h
[5] = test system: Enterococcus faecalis, 27404; type: cell-based; settings: 27404, 18 h
[6] = test system: Enterococcus faecium, 30951; type: cell-based; settings: 30951, 18 h
[7] = test system: Klebsiella pneumoniae, 26233; type: cell-based; settings: 26233, 18 h
[8] = test system: Proteus mirabilis, 25178; type: cell-based; settings: 25178, 18 h
[9] = test system: Pseudomonas aeruginosa (ATCC 27853); type: cell-based; settings: ATCC 27853, 18 h
Outline: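 Peptides and peptidomimetics were tested by two-fold dilution in MHB II against bacteria seeded at 5 × 10^5 CFU/mL. Incubation lasted 18 h at 37 °C in ambient air, with visual MIC scoring; data come from two independent days in technical triplicate.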

[10] = test system: E. coli, 30235; type: cell-based, Escherichia coli; settings: 30235, 18 h
Experimental: (§1) To explore the antimicrobial activity of the library of peptides and peptidomimetics, they were tested against Acinetobacter baumannii, Corynebacterium auriscanis, Escherichia coli, Enterococcus faecalis, Enterococcus faecium, Klebsiella pneumonia, Proteus mirabilis, and Pseudomonas aeruginosa. Bacteria grown on agar plates for 18 h at 37 °C were diluted to ~1 × 10^8 CFU/mL in Mueller–Hinton broth (MHB). Two-fold serial dilutions of peptides and peptidomimetics in MHB II were inoculated with bacteria to achieve a final concentration of 5 × 10^5 CFU/mL in polypropylene 96 U-well microtiter plates (Almeco, Esbjerg, Denmark), followed by incubation at 37 °C in ambient air for 18 h. The MIC values were determined as the lowest concentration showing no visible bacterial growth. Experiments were performed twice (in technical triplicates) on two different days.

[11] = test system: clinical MRSP strain C22963; assay: Time–kill kinetics; type: cell-based, Staphylococcus pseudintermedius; settings: 1× MIC, MRSP C22963
Experimental: The time–kill experiments of D2 against the methicillin-resistant S. pseudintermedius strain C22963 were performed using an in-house protocol adopted and modified from Blondeau et al.: the bacterium was grown overnight on a blood agar plate. The next day, an inoculum was transferred to MHB and incubated for 2 h at 37 °C to reach exponential growth phase. […] Aliquots were removed at 1 h intervals up to 6h and spotted in triplicate on blood agar plates, and incubated overnight at 37 °C. Colonies were counted and CFU per mL was calculated.

[12] = test system: DNA synthesis in MRSP E104; assay: Macromolecule biosynthesis assay, DNA (3H-thymidine); type: cell-based, Staphylococcus pseudintermedius; settings: 0.5× MIC, 20 min incubation, MRSP E104, 3H-thymidine; means of two experiments
Experimental: (§2) The effect on DNA and cell wall synthesis was investigated after 20 min of incubation of MRSP E104 with the precursors ^3H-thymidine and ^3H-glucosamine hydrochloride, respectively, as previously reported by Ling et al.. Following macromolecule precipitation, radioactivity was counted using scintillation fluid. Incorporation of ^3H- or ^14C-labeled thymidine has been used to investigate DNA replication and transcriptional activity during the cell cycle; ^3H-glucosamine hydrochloride has been used in a mode of action study for the antimicrobial peptide plectasin, which targets the cell wall precursor lipid II [44].
(§3) Macromolecules (DNA and cell wall) biosynthesis rates were measured using strain MRSP E104 following a protocol adapted from Ling et al.. Briefly, overnight culture of E104 was diluted 1:100 in MHB and freshly grown up to OD 0.2 at 600 nm. Grown cells were pelleted down by centrifugation and then resuspended in fresh MHB medium followed by incubation for 20 min on a dry heat-bath with D2 or analogues or nisin and radiolabeled precursor: (50 µCi) ^3H-Thymidine (PerkinElmer) and (5 µCi) ^3H-glucosamine hydrochloride per mL for DNA and cell wall, respectively. A positive control without antimicrobials was maintained that corresponds to 100% synthesis rate. After 20 min of incubation, samples were precipitated with equal volume of cold 30% trichloroactic acid (TCA Sigma, Søborg, Denmark) on ice. After 15 to 30 min of incubation on ice, precipitates were filtered on a membrane filter and subsequently washed twice with cold 15% TCA and twice with cold water using a vacuum manifold. Next, filters were air dried overnight and then moved to 10 mL scintillation vials. Finally, 3 mL scintillation fluid was added to each vial and ^3H count was taken in Beckman Coulter LS6500 liquid scintillation counter for 1 min. The radioactive counts of the control samples with no antimicrobial exposure were considered to have 100% precursor incorporation and macromolecule synthesis. The percentage rates of macromolecule synthesis in the antimicrobial-exposed samples were calculated compared to control. Each experiment was performed twice with a technical replicate, and the average rates of synthesis were plotted.

[13] = test system: cell wall synthesis in MRSP E104; assay: Macromolecule biosynthesis assay, cell wall (3H-glucosamine hydrochloride); type: cell-based, Staphylococcus pseudintermedius; settings: 0.5× MIC, 20 min incubation, MRSP E104, 3H-glucosamine hydrochloride; means of two experiments
Experimental: as §2, §3

[14] = test system: S. aureus; assay: MIC against canine clinical S. aureus strains (Table S2); type: cell-based, Staphylococcus aureus
Experimental: (§4) Similarly, in this study, to assess the degree of selectivity for S. pseudintermedius, D2 and D2D were tested against a collection of S. aureus and MSSP strains (Table S2).
as §1

[15] = test system: S. pseudintermedius; assay: MIC against canine clinical S. pseudintermedius strains (Table S2); type: cell-based, Staphylococcus pseudintermedius
Experimental: as §4, §1

[16] = test system: red blood cell (RBC); settings: 0.5% RBC suspension in PBS, 1 h, 37 °C, read at 414 nm, normalized to mellitin and PBS, triplicates
Experimental: Briefly, 75 µL of peptide in PBS was mixed with 75 µL of a 0.5% red blood cell (RBC) suspension in PBS, and incubated for 1 h at 37 °C. The hemoglobin release was then measured at 414 nm and normalized, using mellitin as positive control and PBS as negative control. Experiments were done in triplicates.

CCCC[C@@H](NC(=O)[C@@H](CCCCN)NC(=O)[C@@H](Cc1cccc2ccccc12)NC(=O)[C@@H](CCCCN)NC(=O)[C@@H](Cc1ccccc1)NC(=O)[C@@H](Cc1cccc2ccccc12)NC(=O)[C@@H](CCCCN)NC(=O)[C@H](N)CCCCN)C(N)=O [D2D] (H-[dK][dK][d1Nal][dF][dK][d1Nal][dK][dNle]-NH2)
MIC MSSP [1]: 1 to 4 µg/mL
MIC MRSP [2]: 4 µg/mL (≈ 3.38 µM)
MIC Acinetobacter baumannii [3]: 16 µg/mL (≈ 13.5 µM)
MIC Corynebacterium auriscanis [4]: 2 µg/mL (≈ 1.69 µM)
MIC Enterococcus faecalis [5]: 8 µg/mL (≈ 6.75 µM)
MIC Enterococcus faecium [6]: 4 µg/mL (≈ 3.38 µM)
MIC Klebsiella pneumoniae [7]: 8 µg/mL (≈ 6.75 µM)
MIC Proteus mirabilis [8]: >64 µg/mL
MIC PA [9]: 4 µg/mL (≈ 3.38 µM)
MIC E. coli [10]: 4 µg/mL (≈ 3.38 µM)
time to killing to bacterial levels below the detection threshold [11]: 30 min
inhibition of DNA biosynthesis rate [12]: 37%
effect on (inhibition of) cell wall synthesis [13]: 39%
MIC S. aureus 25054 ([14]; 25054, 8 G6, dog, wound, 2009): 2 µg/mL (≈ 1.69 µM)
MIC S. aureus 27266 ([14]; 27266, 16 G9, dog, skin, 2010): 2 µg/mL (≈ 1.69 µM)
MIC S. aureus 28264 ([14]; 28264, 20 B1, dog, wound, 2011): 4 µg/mL (≈ 3.38 µM)
MIC S. aureus 30935 ([14]; 30935, 24 B9, dog, joint, 2013): 2 µg/mL (≈ 1.69 µM)
MIC S. aureus 36968 ([14]; 36968, 61 A9, dog, wound, 2016): 4 µg/mL (≈ 3.38 µM)
MIC S. aureus 37595 ([14]; 37595, 65 D2, dog, joint, 2016): 2 µg/mL (≈ 1.69 µM)
MIC S. aureus 37708-2 ([14]; 37708-2, 66 C6, dog, skin, 2016): 4 µg/mL (≈ 3.38 µM)
MIC S. aureus 38200 ([14]; 38200, 68 E9, dog, skin, 2016): 2 µg/mL (≈ 1.69 µM)
MIC S. aureus 38565-1 ([14]; 38565-1, 70 A5, dog, skin, 2017): 2 µg/mL (≈ 1.69 µM)
MIC S. aureus 38841 ([14]; 38841, 70 G5, dog, urine, 2017): 4 µg/mL (≈ 3.38 µM)
MIC S. pseudintermedius 22963 ([15]; 22963, 3 B9, dog, ?, 2007): 2 µg/mL (≈ 1.69 µM)
MIC S. pseudintermedius 26071 ([15]; 26071, 11 E5, dog, skin, 2009): 1 µg/mL (≈ 0.844 µM)
MIC S. pseudintermedius 26092-2 ([15]; 26092-2, 11 E4, dog, skin, 2009): 1 µg/mL (≈ 0.844 µM)
MIC S. pseudintermedius 26959 ([15]; 26959, 15 F8, dog, wound, 2010): 2 µg/mL (≈ 1.69 µM)
MIC S. pseudintermedius 27364 ([15]; 27364, 17 A7, dog, wound, 2011): 2 µg/mL (≈ 1.69 µM)
MIC S. pseudintermedius 27382 ([15]; 27382, 17 B8, dog, ear, 2011): 2 µg/mL (≈ 1.69 µM)
MIC S. pseudintermedius 31524 ([15]; 31524, 54 C3, dog, ear, 2013): 2 µg/mL (≈ 1.69 µM)
MIC S. pseudintermedius 33228 ([15]; 33228, 55 E2, dog, skin, 2014): 2 µg/mL (≈ 1.69 µM)
MIC S. pseudintermedius 35890 ([15]; 35890, 59 B8, dog, ear, 2015): 2 µg/mL (≈ 1.69 µM)
MIC S. pseudintermedius 37526-1 ([15]; 37526-1, 65 B4, dog, skin, 2016): 2 µg/mL (≈ 1.69 µM)
MIC S. pseudintermedius 37535-1 ([15]; 37535-1, 65 B6, dog, skin, 2016): 2 µg/mL (≈ 1.69 µM)
MIC S. pseudintermedius 38637 ([15]; 38637, 70 C3, dog, wound 2017): 2 µg/mL (≈ 1.69 µM)
MIC S. pseudintermedius 38820 ([15]; 38820, 70 F9, dog, urine 2017): 2 µg/mL (≈ 1.69 µM)
HA, percentage of hemolysis at 150 µM [16]: 35%

Reference: paper PMC6470533, “Structure–Activity Study, Characterization, and Mechanism of Action of an Antimicrobial Peptoid D2 and Its D- and L-Peptide Analogues” (Molecules, 2019)
